Measurements reported in patent publication US20170105952A1, “HISTONE ACETYL TRANSFERASE ACTIVATORS AND HISTONE DEACETYLASE INHIBITORS IN THE TREATMENT OF ALCOHOLISM” (THE BOARD OF TRUSTEES OF THE UNIVERSITY OF ILLINOIS, priority 2006, published 2017).
Entries after “also recorded” stand apart in the source; their conditions may differ. Read-outs that look alike come from different tables or passages of the source.

Legend:
HAT = conditions: Mantelingu et al 2007; cited from earlier work
p300 HAT = p300 HAT (Homo sapiens, UniProt Q09472); conditions: Balasubramanyam et al 2003; cited from earlier work
HDAC = conditions: Balasubramanyam et al 2003; cited from earlier work
Limk1 = Limk1 protein levels in amygdaloid structures of ethanol-withdrawn rats (gold-immunolabeling); format: in vivo; conditions: SAHA 50 mg/kg intraperitoneally, decrease seen in CeA and MeA, FIG. 5
Procedure: The effect on protein levels of Limk1 in the amygdala of ethanol-withdrawn SD rats after chronic ethanol exposure was measured. SD rats were fed with control or ethanol liquid diet, and ethanol-fed rats were withdrawn for 24 hours. […] Brains were collected after perfusion for Limk1 protein level measurement. Protein levels were measured in amygdaloid structures by gold-immunolabeling. Ethanol withdrawal, but not ethanol treatment, produced significant decreases in protein levels of Limk1 in the CeA and MeA, but not in the BLA.

acetylated histone H3 [1] = assay: Acetylated histone H3 protein levels in amygdaloid structures of ethanol-withdrawn rats (gold-immunolabeling); format: in vivo; conditions: for histone H3-K9 acetylation: SAHA 50 mg/kg intraperitoneally, FIG. 3
Procedure: (§1) The effect of HDAC inhibition on acetylated histone H3, CBP, and Sir-2 (HDAC III) level in ethanol-withdrawn SD rats after chronic ethanol exposure was assayed using trichostatin A (TSA). SD rats were fed control or ethanol liquid diet, and ethanol-fed rats were withdrawn for 24 hours. Ethanol-withdrawn and control rats were treated with TSA or vehicle, and protein levels were measured in amygdaloid structures by gold-immunolabeling. In the CeA and MeA, but not in the BLA, ethanol withdrawal produced significant reductions in protein levels of acetylated histone H3 and CBP-HAT, and produced an increase in protein levels of Sir-2. […] Thus, histone acetylation is normalized by TSA treatment due to inhibition of HDAC activity.
In the CeA and MeA, but not in the BLA, ethanol withdrawal produced significant reductions in protein levels of acetylated histone H3-K9.

[2] = test system: ethanol-withdrawn SD rats; assay: Elevated-plus maze (EPM) test of anxiety-like behaviors in ethanol-withdrawn rats; format: in vivo
Procedure: The effect of HDAC inhibition on anxiety-like behaviors of ethanol-withdrawn SD rats after chronic ethanol exposure was assayed using the class I and class II HDAC inhibitor trichostatin A (TSA). SD rats were fed with control or ethanol liquid diet, and ethanol-fed rats were withdrawn for 24 hours as described previously (Pandey et al, Alcohol Clin. Exp. Res. 27:396-409, 2003). Ethanol-withdrawn and control rats were treated with TSA or vehicle (1:5 dilution of DMSO with phosphate-buffered saline) two hours before measuring anxiety-like behaviors using the elevated-plus maze (EPM) test. The EPM is a cross-shaped elevated apparatus consisting of two open arms and two closed arms arranged directly opposite each other and connected to a central platform. To measure anxiety-like behaviors, a test rat was habituated for five-minutes in the test room and then placed on the central platform facing an open arm. The number of entries to each type of arm over a five-minute period was observed and recorded. EPM test results were reported as the mean±SEM of the percent of open-arm entries and the percent of time spent on the open arms. These collectively are referred to as open-arm activity. The general activity of each rat was measured by calculating the sum of open- and closed-arm entries. In the EPM test, ethanol withdrawal after chronic ethanol exposure produced increased anxiety-like behaviors as measured by a reduction in open-arm activities. […]
The effect of Sir-2 inhibition on anxiety-like behaviors in ethanol-withdrawn SD rats after chronic ethanol exposure was assayed by central amygdaloid infusion of the Sir-2 inhibitor, sirtinol. […] Sirtinol (0.5 μl of 25 μM sirtinol) or vehicle (0.5 μl of 0.3% DMSO diluted with artificial CSF) was infused into the CeA of ethanol-withdrawn and control rats, and anxiety was measured after two hours. Anxiety-like behaviors in rats were then measured in the EPM test. […]

[3] = test system: HDAC activity in the amygdala; assay: HDAC activity in the amygdala of ethanol-withdrawn rats; format: in vivo
Procedure: The effect on HDAC activity in the amygdala of ethanol-withdrawn SD rats after chronic ethanol exposure was measured. SD rats were fed with control or ethanol liquid diet, and ethanol-fed rats were withdrawn for 24 hours. Ethanol-withdrawn and control rats were treated with TSA or vehicle two hours before measuring HDAC activity. Ethanol withdrawal after chronic ethanol exposure produced an increase in HDAC activity in the amygdala of rats.
The effect on HDAC activity in the amygdala of ethanol-withdrawn SD rats after chronic ethanol exposure was measured. SD rats were fed with control or ethanol liquid diet, and ethanol-fed rats were withdrawn for 24 hours. […] Two hours after injections, brains were collected to measure HDAC activity. The nuclear and cytosolic fractions of amygdala were prepared and HDAC activities were measured using an HDAC ELISA kit. Ethanol withdrawal after chronic ethanol exposure produced an increase in nuclear, but not cytosolic, HDAC activity in the amygdala of rats.

[4] = test system: ethanol-withdrawn SD rats; assay: Light/dark box exploration test of anxiety-like behaviors in ethanol-withdrawn rats; format: in vivo
NPY = NPY mRNA and protein levels in amygdaloid structures of ethanol-withdrawn rats; format: in vivo; conditions: TSA, reduction seen in CeA and MeA
Procedure: The effect of HDAC inhibition on NPY mRNA and protein levels in ethanol-withdrawn SD rats after chronic ethanol exposure was also assayed using trichostatin A (TSA). SD rats were fed control or ethanol liquid diet, and ethanol-fed rats were withdrawn for 24 hours. Ethanol-withdrawn and control rats were treated with TSA or vehicle, and mRNA and protein levels were measured in amygdaloid structures. In the CeA and MeA, but not in the BLA, ethanol withdrawal produced significant reductions in both mRNA and protein levels of NPY. […] Thus, NPY expression is also normalized by TSA treatment during ethanol withdrawal after chronic ethanol exposure.

[5] = test system: class I and class II HDACs; conditions: Yoshida et al 1990; cited from earlier work
non-preferring (NP) rats = assay: Two-bottle voluntary alcohol intake in non-preferring rats; format: in vivo; conditions: TSA 2 mg/kg intraperitoneal daily, last three days of 9% alcohol drinking
Procedure: (§2) The effect of HDAC inhibition on the alcohol consumption of alcohol-preferring (P) and non-preferring (NP) rats was assayed. Selective breeding has produced the P and NP rat lines with high and low alcohol preference, respectively (Li T. K, Lumeng L, Doolittle D P, Behav. Genet. 23:163-170, 1993; McKinzie D L, Nowak K L, Murphy J M, Li T K, Lumeng L, McBride W J, Alcohol Clin. Exp. Res. 22:1584-1590, 1998). P and NP rats were habituated to drink water equally from two bottles. One bottle was then replaced with 7% ethanol for the first three days and 9% ethanol for the next seven days. During the last three days of 9% alcohol drinking, rats were treated with TSA daily (2 mg/kg intraperitoneal injection). […] As a result of the large reduction in voluntary alcohol consumption by the alcohol-preferring animal model when treated with an HDAC inhibitor, it is expected that HDAC inhibitors also prevent the development of alcohol dependence.

CBP [6] = assay: CBP protein levels in amygdaloid structures of ethanol-withdrawn rats (gold-immunolabeling); format: in vivo; conditions: TSA
Procedure: as §1

[7] = test system: alcohol-preferring (P) rats; assay: Two-bottle voluntary alcohol intake in alcohol-preferring rats; format: in vivo; conditions: TSA 2 mg/kg intraperitoneal daily, last three days of 9% alcohol drinking
Procedure: as §2

Sir-2 (HDAC III) = assay: Sir-2 protein levels in amygdaloid structures of ethanol-withdrawn rats (gold-immunolabeling); format: in vivo; conditions: TSA
Procedure: as §1

HDACs in the amygdala = conditions: ethanol 1 g/kg intraperitoneal injection, after one hour
Procedure: (§3) The effect of acute ethanol exposure on HDAC activity, histone acetylation level, and CBP level was measured in Sprague-Dawley (SD) rats. Rats were injected with ethanol (1 g/kg intraperitoneal injection) or n-saline, and after one hour, anxiolytic responses were measured. […] The amygdala was then dissected out, and HDAC activity was measured.

Sprague-Dawley (SD) rats = conditions: ethanol 1 g/kg intraperitoneal injection vs n-saline, after one hour
Procedure: as §3

CBP [8] = conditions: acute ethanol vs n-saline
Procedure: (§4) The protein levels of acetylated histone H3, acetylated histone H4, and CBP in the CeA structures of n-saline- or acute ethanol-treated rats were measured by immunohistochemistry.

acetylated histone H3 [9] = conditions: acute ethanol vs n-saline
Procedure: as §4

acetylated histone H4 = conditions: acute ethanol vs n-saline
Procedure: as §4

Sir-2 = conditions: Landry et al 2000; Blander et al 2004; cited from earlier work

p300 HAT, sequence (Q09472 whole entry, species assumed): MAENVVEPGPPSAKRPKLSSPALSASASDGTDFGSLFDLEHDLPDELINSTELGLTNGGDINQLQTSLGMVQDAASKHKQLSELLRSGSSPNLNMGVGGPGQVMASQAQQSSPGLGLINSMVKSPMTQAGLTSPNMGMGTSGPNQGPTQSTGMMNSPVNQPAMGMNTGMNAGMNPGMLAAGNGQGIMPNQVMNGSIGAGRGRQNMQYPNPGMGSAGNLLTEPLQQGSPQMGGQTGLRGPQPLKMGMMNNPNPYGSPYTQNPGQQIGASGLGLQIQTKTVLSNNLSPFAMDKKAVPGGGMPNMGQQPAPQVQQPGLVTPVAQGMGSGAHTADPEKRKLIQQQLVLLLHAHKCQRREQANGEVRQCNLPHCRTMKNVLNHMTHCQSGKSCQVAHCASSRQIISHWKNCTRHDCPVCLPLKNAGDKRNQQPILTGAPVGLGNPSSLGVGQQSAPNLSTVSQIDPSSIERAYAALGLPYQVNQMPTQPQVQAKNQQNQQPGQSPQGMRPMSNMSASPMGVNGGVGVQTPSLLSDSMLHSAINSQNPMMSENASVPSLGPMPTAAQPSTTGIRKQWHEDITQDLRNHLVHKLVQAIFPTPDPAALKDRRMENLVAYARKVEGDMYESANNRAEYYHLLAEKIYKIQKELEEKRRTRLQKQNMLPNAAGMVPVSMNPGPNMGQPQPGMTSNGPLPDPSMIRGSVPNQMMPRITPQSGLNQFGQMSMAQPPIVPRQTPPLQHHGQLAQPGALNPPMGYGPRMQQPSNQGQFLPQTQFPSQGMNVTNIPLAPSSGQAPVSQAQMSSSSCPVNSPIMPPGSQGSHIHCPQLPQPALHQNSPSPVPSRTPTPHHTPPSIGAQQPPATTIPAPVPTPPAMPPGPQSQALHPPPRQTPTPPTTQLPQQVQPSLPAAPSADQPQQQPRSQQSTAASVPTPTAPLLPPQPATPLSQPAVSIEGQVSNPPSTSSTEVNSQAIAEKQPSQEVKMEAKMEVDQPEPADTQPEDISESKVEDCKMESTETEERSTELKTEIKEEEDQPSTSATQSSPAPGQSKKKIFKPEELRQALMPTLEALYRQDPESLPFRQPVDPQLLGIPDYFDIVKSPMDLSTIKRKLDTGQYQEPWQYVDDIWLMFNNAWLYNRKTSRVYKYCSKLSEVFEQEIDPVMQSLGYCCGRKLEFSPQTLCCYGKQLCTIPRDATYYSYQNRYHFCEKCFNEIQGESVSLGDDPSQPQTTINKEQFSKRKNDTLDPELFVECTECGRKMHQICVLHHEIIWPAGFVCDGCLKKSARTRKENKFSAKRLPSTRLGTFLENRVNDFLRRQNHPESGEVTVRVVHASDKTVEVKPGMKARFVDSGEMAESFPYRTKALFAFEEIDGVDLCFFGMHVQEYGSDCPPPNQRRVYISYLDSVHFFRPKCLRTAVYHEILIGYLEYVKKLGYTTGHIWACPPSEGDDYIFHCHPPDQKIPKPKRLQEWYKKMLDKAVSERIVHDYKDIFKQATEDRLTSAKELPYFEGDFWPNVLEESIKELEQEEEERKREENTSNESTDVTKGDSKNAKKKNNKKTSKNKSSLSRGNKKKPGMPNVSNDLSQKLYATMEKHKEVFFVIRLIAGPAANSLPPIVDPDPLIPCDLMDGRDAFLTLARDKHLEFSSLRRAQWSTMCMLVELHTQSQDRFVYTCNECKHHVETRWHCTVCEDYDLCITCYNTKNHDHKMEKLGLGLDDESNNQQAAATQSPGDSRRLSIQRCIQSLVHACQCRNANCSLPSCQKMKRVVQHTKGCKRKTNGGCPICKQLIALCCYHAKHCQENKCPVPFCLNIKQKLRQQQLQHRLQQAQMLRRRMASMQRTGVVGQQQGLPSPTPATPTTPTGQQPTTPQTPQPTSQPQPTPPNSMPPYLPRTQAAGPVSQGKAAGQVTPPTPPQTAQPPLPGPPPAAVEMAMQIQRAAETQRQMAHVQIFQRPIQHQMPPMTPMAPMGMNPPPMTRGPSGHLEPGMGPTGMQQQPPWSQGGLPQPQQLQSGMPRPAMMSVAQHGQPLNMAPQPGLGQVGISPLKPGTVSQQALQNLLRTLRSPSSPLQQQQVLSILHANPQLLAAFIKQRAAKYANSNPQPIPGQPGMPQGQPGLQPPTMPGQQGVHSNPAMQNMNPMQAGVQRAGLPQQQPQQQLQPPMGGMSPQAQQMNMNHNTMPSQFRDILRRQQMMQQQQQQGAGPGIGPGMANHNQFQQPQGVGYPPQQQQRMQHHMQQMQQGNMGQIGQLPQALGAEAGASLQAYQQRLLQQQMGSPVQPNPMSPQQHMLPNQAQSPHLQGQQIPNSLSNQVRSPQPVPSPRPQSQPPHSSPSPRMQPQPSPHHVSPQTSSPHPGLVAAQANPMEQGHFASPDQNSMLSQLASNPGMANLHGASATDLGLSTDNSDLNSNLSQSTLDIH

Question: For `CCOc1ccccc1C(=O)Nc1ccc(Cl)c(C(F)(F)F)c1` [CTB, N-(4-chloro-3-trifluoromethyl-phenyl)-2-ethoxy-benzamide], which HAT activation (HAT) is on record?
Answer: HAT activators

Question: What does the source list for `CCCCCCCCCCCCCCCc1cccc(OCC)c1C(=O)Nc1ccc(Cl)c(C(F)(F)F)c1` [CTPB, N-(4-chloro-3-trifluoromethyl-phenyl)-2-ethoxy-6-pentadecyl-benzamide]?
Answer: p300 HAT activity (p300 HAT): activate p300 HAT activity; HDAC activity (HDAC): without affecting HDAC activity

Question: Which results are given for `O=C(CCCCCCC(=O)Nc1ccccc1)NO` [SAHA, suberoylanilide hydroxamic acid]?
Answer: Limk1 protein levels (Limk1): normalized Limk1 levels; histone H3-K9 acetylation (acetylated histone H3 [1]; BLA): had no effects on histone H3-K9 acetylation; histone H3-K9 acetylation (acetylated histone H3 [1]; CeA and MeA): corrected the deficits in histone H3-K9 acetylation; anxiety-like behaviors (open-arm activity) in EPM test ([2]; SAHA 50 mg/kg intraperitoneally, 24 hours ethanol withdrawal, FIG. 1B): prevented these anxiety-like behaviors; withdrawal-induced increase in nuclear HDAC activity in the amygdala ([3]; SAHA 50 mg/kg intraperitoneally, two hours after injection, nuclear fraction, HDAC ELISA kit, FIG. 2): attenuated this increase in nuclear HDAC activity; anxiety-like behaviors (time spent in the light box) ([4]; SAHA 50 mg/kg intraperitoneally, 24 hours ethanol withdrawal, FIG. 1A): significantly reduced these anxiety-like behaviors

Question: What does the source list for `CC(/C=C/C(=O)NO)=C\[C@@H](C)C(=O)c1ccc(N(C)C)cc1` [TSA, trichostatin A]?
Answer: NPY mRNA and protein levels (NPY): restored NPY levels to normal; also recorded: normalized the reduction in NPY expression; acetylated histone H3 levels (acetylated histone H3 [1]; TSA, reduction seen in CeA and MeA): rescued acetylated histone H3 levels; also recorded: normalized the reduction in acetylation of histone H3; anxiety-like behaviors (open-arm activity) in EPM test ([2]; TSA two hours before test, 24 hours ethanol withdrawal after chronic ethanol): restored these anxiety-like behaviors to normal levels; also recorded: prevented the development of anxiety-like behaviors; inhibition of class I and class II HDACs [5]: potently inhibits class I and class II HDACs; alcohol intake (non-preferring (NP) rats): not in low alcohol-drinking NP rats; CBP levels (CBP [6]): did not modulate CBP and Sir-2 levels; alcohol intake [7]: significantly attenuated the alcohol intake; Sir-2 levels (Sir-2 (HDAC III)): did not modulate CBP and Sir-2 levels; withdrawal-induced increase in HDAC activity in the amygdala ([3]; TSA two hours before measurement, 24 hours ethanol withdrawal): completely prevented this increase in HDAC activity; also recorded: normalized the increase in HDAC activity; anxiety-like behaviors (time spent in the light box) ([4]; TSA, 24 hours ethanol withdrawal after chronic ethanol): significantly reduced these anxiety-like behaviors

Question: Which results are given for `CCO` [ethanol]?
Answer: inhibition of HDAC activity in the amygdala compared to n-saline-treated rats (HDACs in the amygdala): 36%; anxiolytic responses (Sprague-Dawley (SD) rats): anxiolytic effects; protein level of CBP (CBP [8]; BLA): not in basolateral amygdaloid (BLA) structures; protein level of CBP (CBP [8]; CeA): increased protein levels; protein level of CBP (CBP [8]; MeA): increased protein levels; protein level of acetylated histone H3 (acetylated histone H3 [9]; BLA): not in basolateral amygdaloid (BLA) structures; protein level of acetylated histone H3 (acetylated histone H3 [9]; CeA): increased protein levels; protein level of acetylated histone H3 (acetylated histone H3 [9]; MeA): increased protein levels; protein level of acetylated histone H4 (acetylated histone H4; CeA): increased protein levels; protein level of acetylated histone H4 (acetylated histone H4; MeA): increased protein levels

Question: For `CC(NC(=O)c1ccccc1/N=C/c1c(O)ccc2ccccc12)c1ccccc1` (stereo not shown) [sirtinol], which “inhibition of Sir-2” value (Sir-2) is on record?
Answer: specific inhibitor of Sir-2

Question: And the “anxiety-like behaviors (open-arm activity) in EPM test” value ([2]; 0.5 μl of 25 μM sirtinol infused into the CeA, two hours before test, 24 hours ethanol withdrawal)?
Answer: development of these anxiety-like behaviors was prevented
